Source: US8765762B2, “Pyrazolopyridazines and methods for treating retinal-degerative diseases and hearing loss associated with usher syndrome” (Usher III Initiative, priority 2012, dated 2014)

Tested on: N48K Clarin-1
Experiment: Restoration of expression of N48K Clarin-1 (24 hour incubation), Example 20
Type: cell-based
Settings: HEK293-Clarin-1 N48K-HA D9 cell line; 24 hr incubation with compound; HA-Clarin-1 staining per cell
Description: Assay Method Showing Activity of Compounds of the Invention that Restore Expression of N48K Clarin-1 (24 Hour Incubation)
Clarin-1 is the protein encoded by the gene mutated in Usher III Syndrome (Adato et al., 2002). The most prevalent mutation in Clarin-1 in North America is N48K, which is reported to cause loss of glycosylation and a trafficking defect (Tian et al., 2009). […] Thus it is believed that restoring the trafficking of N48K Clarin-1 to the cell surface provides an avenue of intervention for Usher III Syndrome. […]
The HA-tagged N48K Clarin-1 was detected with an antibody against the HA tag (HA.11 Clone 16B12 Monoclonal antibody, Covance #MMS-101P) at a dilution of 1:1000 in PBS containing Triton X-100. […] The imaging of the stained cells was performed on an InCell 1000 High Content Imager (GE Healthcare), reading out the Cy3 channel for N48K Clarin-1 and the DAPI channel for nuclei. The images were analyzed and quantitated using a specific algorithm. This algorithm measured the HA-Clarin-1 staining for each cell based on the additional nuclear segmentation of the DAPI signal (FIG. 1). This algorithm measured the intensity per cell, and thus it is less sensitive for variation in cell number. Per well, approximately 2,000 cells were measured to achieve an average density per cell measurement.

- IC50: < 2000 nM
Compound: O=C(Cn1nc(-c2ccccc2)c2c(Cl)c(-c3cccc(F)c3)nnc21)N1CCCC1 [Compound 11, 2-[4-chloro-5-(3-fluorophenyl)-3-phenyl-pyrazolo[3,4-c]pyridazin-1-yl]-1-pyrrolidin-1-yl-ethanone]
